# Results: US8080668B2, “Thiazoles derivatives as AMPK activator” (Dr. Reddy's Laboratories Limited, priority 2005, dated 2011)
# Assays:
# AMPK [1] = test: AMPK activation potential, cell based ELISA with p-AMPK specific antibody, L6 skeletal muscle cells; details: 10 μM compound, 24 hours, normalized to metformin at 2 mM = 100%
# Protocol: (§1) The AMPK activation potential percentages in this specification are calculated with respect to the already known AMPK activator metformin. The percentages are obtained by normalizing the values obtained at concentrations in the range of 2 μM to 10 μM with that of metformin by considering the values obtained for metformin at 2 mM concentrations as 100%. However, the AMPK activation potential percentages can also be calculated with respect to other known AMPK activators also.
# (§2) AMPK activation potential of the compounds of formula (I) was evaluated using a cell based ELISA approach. L6 muscle skeletal muscle and Hep G2 hepatoma liver cells were cultured for 48 hours prior to drug addition at various concentrations. Twenty four hours later, the cells were fixed and the ELISA plate developed following standard protocol using p-AMPK specific antibody.
# (§3) Various cell lines such as HepG2 and L6 were revived from glycerol stocks (ATCC). The cells were maintained in a T 75 culture flask-containing medium (DMEM +10% fetal calf serum). On reaching a confluence of 70% to 80%, the cells were seeded in a 96 well plate at a density of 10×10^3 cells per well in DMEM +10% FCS medium. The plates were then incubated at 37° C. with 5% CO2 for 48 hours. Various concentrations of drugs were prepared in DMSO and diluted to required concentration with the medium and incubated at 37° C. with 5% CO2 for 24 hours. Cells were fixed with 4% formaldehyde in PBS for 30 minutes at 25-35° C. and washed three times with PBS containing 0.1% Triton X-100. Endogenous peroxidase was quenched with 0.6% H2O2 in PBS-T for 30 minutes and washed three times in PBS-T. The cells were then blocked with 10% FCS in PBS-T for 1hour. The cells were incubated for 8-12 hours with various concentrations of primary antibody in PBS-T containing 5% BSA at 4° C., followed by washing three times with PBS-T for 5 minutes and incubating with a secondary antibody (HRP conjugated 1:500 in PBS-T with 5% BSA for 1 hour at 25-35° C. The cells were washed three times with PBS-T for 5 minutes and twice with PBS and incubated with 100 μl TMB/H2O2 color developing solution for 15 minutes. The reaction was stopped with 50 μl of 1M H2SO4. The plate was then read at 460 nm using ELISA plate reader.
# (§4) AMPK activation percentages for various compounds are given in the table below (AMPK activation potential percentages are obtained by normalizing the values obtained at 10 μM concentration with that of metformin by considering the values obtained for metformin at 2 mM concentrations as 100%).
# AMPK [2] = test: AMPK activation potential, cell based ELISA with p-AMPK specific antibody, Hep G2 hepatoma liver cells; details: 10 μM compound, 24 hours; normalized to metformin at 2 mM = 100%; HepG2 cells
# Protocol: as §1, §2, §3, §4
melting point [°C],Structure (SMILES),AMPK % activation (at 10 μM) L6 skeletal muscle cells (AMPK [1]) [%],AMPK % activation (at 10 μM) HepG-2 hepatoma liver cells (AMPK [2]) [%]
,"O=C(O)Cc1csc(Nc2ccc(F)cc2)n1 [Example 1-a, [2-(4-Fluoro-phenylamino)-thiazol-4-yl]-acetic acid]",81,97.9
,"O=C(O)Cc1csc(Nc2ccc(Cl)cc2)n1 [Example 1-b, [2-(4-Chloro-phenylamino)-thiazol-4-yl]-acetic acid]",102.63,87.11
,"Cc1ccc(Nc2nc(CC(=O)O)cs2)cc1 [Example 1-d, (2-p-Tolylamino-thiazol-4-yl)-acetic acid]",99.55,97.11
,"O=C(O)Cc1csc(Nc2ccc(OC(F)(F)F)cc2)n1 [Example 1-e, [2-(4-Trifluoromethoxy-phenylamino)-thiazol-4-yl]-acetic acid]",94.09,100.29
116 to 118,"O=C(O)Cc1csc(Nc2ccc(OCc3ccccc3)cc2)n1 [Example 1-f, [2-(4-Benzyloxy-phenylamino)-thiazol-4-yl]-acetic acid]",88.04,87.76
198 to 199,"O=C(O)Cc1csc(Nc2ccc(N3CCOCC3)cc2)n1 [Example 1-i, [2-(4-Morpholin-4-yl-phenylamino)-thiazol-4-yl]-acetic acid]",109.09,69.71
191 to 192,"O=C(O)Cc1csc(Nc2ccc(Sc3ccc(Cl)cc3)cc2)n1 [Example 1-j, {2-[4-(4-Chloro-phenylsulfanyl)-phenylamino]-thiazol-4-yl}-acetic acid]",97.09,97.56
192 to 193,"O=C(O)Cc1csc(Nc2ccc(Oc3ccc(Cl)cc3)cc2)n1 [Example 1-k, {2-[4-(4-Chloro-phenoxy)-phenylamino]-thiazol-4-yl}-acetic acid]",96.19,97.56
171 to 174,"O=C(O)Cc1csc(Nc2ccc(-c3csc(-c4ccc(C(F)(F)F)cc4)n3)cc2)n1 [Example 1-l, (2-{4-[2-(4-Trifluoromethyl-phenyl)-thiazol-4-yl]-phenylamino}-thiazol-4-yl)-acetic acid]",104.37,85.27
148 to 150,"O=C(O)Cc1csc(Nc2ccc(-c3csc(-c4ccccc4)n3)cc2)n1 [Example 1-m, {2-[4-(2-Phenyl-thiazol-4-yl)-phenylamino]-thiazol-4-yl}-acetic acid]",,
153 to 156,"Cc1nc(-c2ccc(Nc3nc(CC(=O)O)cs3)cc2)cs1 [Example 1-n, {2-[4-(2-Methyl-thiazol-4-yl)-phenylamino]-thiazol-4-yl}-acetic acid]",83.62,98.42
158 to 159,"O=C(O)Cc1csc(Nc2ccc(-c3ccccc3)cc2)n1 [Example 1-o, [2-(Biphenyl-4-ylamino)-thiazol-4-yl]-acetic acid]",,
,"CCCCc1ccc(Nc2nc(CC(=O)O)cs2)cc1 [Example 1-p, [2-(4-Butyl-phenylamino)-thiazol-4-yl]-acetic acid]",102.26,75.77
,"O=C(O)Cc1csc(Nc2ccc(O)cc2)n1 [Example 1-s, [2-(4-Hydroxy-phenylamino)-thiazol-4-yl]-acetic acid]",92.35,86.08
,"O=C(O)c1csc(Nc2ccc(Cl)cc2)n1 [Example 2-a, 2-(4-Chloro-phenylamino)-thiazole-4-carboxylic acid]",94.90,97.26
290 to 292,"Cc1nc(-c2ccc(Nc3nc(C(=O)O)cs3)cc2)cs1 [Example 2-b, 2-[4-(2-Methyl-thiazol-4-yl)-phenylamino]-thiazole-4-carboxylic acid]",,
283 to 286,"O=C(O)c1csc(Nc2ccc(-c3csc(-c4ccccc4)n3)cc2)n1 [Example 2-c, 2-[4-(2-Phenyl-thiazol-4-yl)-phenylamino]-thiazole-4-carboxylic acid]",102.19,96.35
,"O=C(O)c1csc(Nc2ccc(-c3csc(-c4ccc(C(F)(F)F)cc4)n3)cc2)n1 [Example 2-d, 2-{4-[2-(4-Trifluoromethyl-phenyl)-thiazol-4-yl]-phenylamino}-thiazole-4-carboxylic acid]",109.70,83.89
,"O=C(O)CCc1csc(Nc2ccc(C(F)(F)F)cc2)n1 [Example 3-e, 3-[2-(4-Trifluoromethyl-phenylamino)-thiazol-4-yl]-propionic acid]",94.72,110.47
